Assay results as given in article PMC4131899 (Biochemistry, 2014).
Substitutions are numbered along the chain they refer to. Like-named read-outs stand apart in the source and are kept apart here.

Tests used:
WT CYP2B4 [1] = biological target: T1, WT CYP2B4 (Oryctolagus cuniculus, UniProt P00178); assay: N-demethylation of benzphetamine in purified reconstituted system; assay type: biochemical, rabbit; conditions: wild type; 1 mM benzphetamine, varied reductase
T1 sequence (P00178 1-491): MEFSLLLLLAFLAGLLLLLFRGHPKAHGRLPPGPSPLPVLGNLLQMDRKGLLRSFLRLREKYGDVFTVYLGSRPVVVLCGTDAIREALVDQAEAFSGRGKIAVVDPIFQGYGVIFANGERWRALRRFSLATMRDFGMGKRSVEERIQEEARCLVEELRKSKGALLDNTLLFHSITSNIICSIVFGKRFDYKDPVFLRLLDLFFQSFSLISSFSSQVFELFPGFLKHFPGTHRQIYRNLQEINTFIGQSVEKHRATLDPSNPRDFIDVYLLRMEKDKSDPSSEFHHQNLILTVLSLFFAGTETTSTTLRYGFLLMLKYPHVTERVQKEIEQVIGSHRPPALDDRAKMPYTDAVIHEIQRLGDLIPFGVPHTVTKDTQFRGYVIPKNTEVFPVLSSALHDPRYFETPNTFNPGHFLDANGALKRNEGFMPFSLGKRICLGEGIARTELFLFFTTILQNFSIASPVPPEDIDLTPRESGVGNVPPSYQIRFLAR
T1 sequence (P00388 1-678 partner): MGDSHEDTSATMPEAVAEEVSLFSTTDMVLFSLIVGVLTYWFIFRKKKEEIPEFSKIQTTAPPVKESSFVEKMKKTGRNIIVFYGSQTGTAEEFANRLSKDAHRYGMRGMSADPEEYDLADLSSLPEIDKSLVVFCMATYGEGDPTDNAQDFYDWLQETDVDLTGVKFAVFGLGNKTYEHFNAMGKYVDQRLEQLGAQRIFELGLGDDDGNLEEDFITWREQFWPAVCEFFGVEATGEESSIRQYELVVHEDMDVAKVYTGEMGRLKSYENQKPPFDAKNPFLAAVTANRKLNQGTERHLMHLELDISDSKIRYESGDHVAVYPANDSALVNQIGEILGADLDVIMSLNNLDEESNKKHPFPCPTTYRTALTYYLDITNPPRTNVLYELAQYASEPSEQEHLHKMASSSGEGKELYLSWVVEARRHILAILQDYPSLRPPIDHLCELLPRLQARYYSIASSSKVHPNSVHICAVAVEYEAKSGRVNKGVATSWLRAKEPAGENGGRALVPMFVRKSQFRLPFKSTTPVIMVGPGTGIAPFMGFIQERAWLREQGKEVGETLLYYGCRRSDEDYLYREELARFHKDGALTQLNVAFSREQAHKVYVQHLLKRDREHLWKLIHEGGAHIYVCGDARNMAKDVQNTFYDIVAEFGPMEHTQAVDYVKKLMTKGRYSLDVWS

CYP2B4 F429H [2] = biological target: T2, CYP2B4 F429H (Oryctolagus cuniculus, UniProt P00178, F429H)
T2 sequence (P00178 1-491 F429H): T1 sequence (P00178 1-491) with F429H

CYP2B4 F429H [3] = biological target: T3, CYP2B4 F429H (Oryctolagus cuniculus, UniProt P00178, F429H); remark: listed apart in the source
T3 sequence (P00178 1-491 F429H): T1 sequence (P00178 1-491) with F429H
T3 sequence (P00388 1-678 partner): T1 sequence (P00388 1-678 partner)

WT CYP2B4 [4] = biological target: T4, WT CYP2B4 (Oryctolagus cuniculus, UniProt P00178); conditions: 1 mM benzphetamine, 20 °C
T4 sequence (P00178 1-491): T1 sequence (P00178 1-491)

CYP2B4 F429H [5] = biological target: T2, CYP2B4 F429H; conditions: 1 mM benzphetamine, 20 °C
CYP2B4 F429H [6] = biological target: T2, CYP2B4 F429H; assay: biochemical
wild type (WT) CYP2B4 = biological target: T5, wild type (WT) CYP2B4 (Oryctolagus cuniculus, UniProt P00178); assay: Substrate binding
T5 sequence (P00178 1-491): T1 sequence (P00178 1-491)

P450 (CYP2B4) = assay: Binding of redox mediator dyes to P450; conditions: data not shown

C[C@@H](Cc1ccccc1)N(C)Cc1ccccc1 [benzphetamine]
Vmax (N-demethylation of BP) (WT CYP2B4 [1]): 49 ± 5 nmol of product min^–1 (nmol of 450)^−1 | decreased affinity of mutant vs WT (CYP2B4 F429H [2]; 30 °C, F429H vs WT): 5 fold | enhancement of binding by cyt b5 (CYP2B4 F429H [2]; F429H, with vs without cyt b5): 5–6 fold | activity retained relative to wild type (N-demethylation of BP) (CYP2B4 F429H [3]; F429H vs wild type): 3.6% | Vmax (N-demethylation of BP) (CYP2B4 F429H [3]; F429H, 1 mM benzphetamine, varied reductase): 1.60 ± 0.05 nmol of product min^–1 (nmol of 450)^−1 | increase in Em on binding of benzphetamine (WT CYP2B4 [4]): 88 mV | redox potential Em with BP (WT CYP2B4 [4]; pH 7.4): –244 ± 7 mV | increase in Em on binding of benzphetamine (CYP2B4 F429H [5]): 15 mV | redox potential Em with BP (CYP2B4 F429H [5]; pH 7.4): –230 ± 8 mV | Kd (CYP2B4 F429H [6]; Ks, F429H, no reductase, no cyt b5, 15 °C): 900 ± 200 µM | Kd (CYP2B4 F429H [6]; Ks, F429H, no reductase, no cyt b5, 30 °C): 390 ± 80 µM | Kd (CYP2B4 F429H [6]; Ks, F429H, no reductase, with cyt b5, 15 °C): 150 ± 60 µM | Kd (CYP2B4 F429H [6]; Ks, F429H, with reductase, no cyt b5, 15 °C): 830 ± 220 µM | Kd (wild type (WT) CYP2B4; Ks, WT, no reductase, no cyt b5, 15 °C): 250 ± 7 µM | Kd (wild type (WT) CYP2B4; Ks, WT, no reductase, no cyt b5, 30 °C): 80 ± 20 µM | Kd (wild type (WT) CYP2B4; Ks, WT, no reductase, with cyt b5, 15 °C): 58 ± 6 µM | Kd (wild type (WT) CYP2B4; Ks, WT, with reductase, no cyt b5, 15 °C): 220 ± 10 µM

c1ccc(C[n+]2ccc(-c3cc[n+](Cc4ccccc4)cc3)cc2)cc1 [benzyl viologen]
spectral change on addition of dye to P450 (P450 (CYP2B4)): did not cause any spectral change

Cc1cc(C(C)(C)C)c(O)c(C(C)(C)C)c1 [butylated hydroxytoluene, 2,6-di-tert-butyl-4-methylphenol]
Kd (CYP2B4 F429H [6]): 1.82 ± 0.24 µM | Kd (wild type (WT) CYP2B4): 0.31 ± 0.14 µM

Nc1ccc2nc3ccc(N)cc3[n+](-c3ccccc3)c2c1.[Cl-] [phenosafranin]
spectral change on addition of dye to P450 (P450 (CYP2B4)): did not cause any spectral change
